Data on 50 molecules can be found in patent US12410179B2, “Modulators of TNF alpha activity and uses thereof” (RayThera, Inc., priority 2023, dated 2025).

The target in this test is TNFα (Homo sapiens, UniProt P01375). The experiment in a line: HEK-Blue hTNFα reporter assay. More on the design: purchased R&D biosystem (R&D Systems) 210-TA-020/CF. The test is classed as cell-based. The following applies: HEK-Blue hTNFα reporter cells, SEAP readout; read-out: IC50 Range. An outline of the steps: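 IC50 from 4-parameter regression of % inhibition, with OD620 of secreted SEAP (QUANTI-Blue, 1 h) referenced to cells with and without hTNFα. HEK-Blue TNFα reporter cells were exposed 24 h to compound premixed 1 h with hTNFα ([…]).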
TNFα, sequence (P01375 77-233 limits assumed): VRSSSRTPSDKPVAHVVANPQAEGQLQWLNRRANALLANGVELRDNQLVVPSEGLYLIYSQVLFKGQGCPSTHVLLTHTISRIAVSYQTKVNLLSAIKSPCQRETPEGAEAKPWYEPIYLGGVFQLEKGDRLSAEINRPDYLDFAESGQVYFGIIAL
(A reporter such as luciferase makes a cellular process visible.)
For orientation: IC50 means the concentration that gives 50% inhibition. With `CN1C(=O)c2cccc(OC(F)F)c2[C@H]2C[C@@H]1c1nn3ccc(-c4cnc([C@]5(O)C[C@@](C)(C(N)=O)C5)nc4)cc3c12` [Example 160], the concentration for half-maximal inhibition (IC50) is below 25 nM.

On to `CN1C(=O)c2cccc(OC(F)F)c2[C@H]2C[C@@H]1c1nn3cc(F)c(-c4ccc(P5(=O)CCOCC5)nc4)cc3c12` [Example 161], for which the IC50 is below 25 nM.

`O=C1N[C@@H]2C[C@H](c3c(OC(F)F)cccc31)c1c2nn2ccc(-c3cnc(N4CCOCC4)nc3)cc12` [Example 162]: the IC50 was below 25 nM.

As to `C[C@@](O)(CC#N)c1ncc(-c2ccn3nc4c(c3c2)[C@@H]2C[C@H]4NC(=O)c3cccc(OC(F)F)c32)cn1` [Example 163], the IC50 is below 25 nM.

For the molecule `C[C@](O)(CC#N)c1ncc(-c2ccn3nc4c(c3c2)[C@@H]2C[C@H]4NC(=O)c3cccc(OC(F)F)c32)cn1` [Example 164], the IC50 was below 25 nM.

Take `CN1C(=O)c2cccc(OC(F)F)c2[C@H]2C[C@@H]1c1nn3ccc(-c4ccc([C@]5(N)C[C@@](C)(C(=O)O)C5)nc4)cc3c12` [Example 165]: the IC50 was below 25 nM.

Consider `CN1C(=O)c2cccc(OC(F)F)c2[C@H]2C[C@@H]1c1nn3cc(F)c(-c4ncc(C5(O)COC5)cn4)cc3c12` [Example 166], for which the IC50 was below 25 nM.

For the molecule `CN1C(=O)c2cccc(OC(F)F)c2[C@H]2C[C@@H]1c1nn3ccc(-c4cnc([C@]5(N)C[C@](C)(C#N)C5)nc4)cc3c12` [Example 167], the half-inhibitory concentration (IC50) was below 25 nM.

Take `CN1C(=O)c2cccc(OC(F)F)c2[C@H]2C[C@@H]1c1nn3ccc(-c4cnc([C@]5(N)C[C@@H](O)C5)c(F)c4)cc3c12` [Example 168]: the IC50 is below 25 nM.

Take `CN1C(=O)c2cccc(OC(F)F)c2[C@H]2C[C@@H]1c1nn3ccc(-c4cnc([C@]5(N)C[C@H](O)C5)c(F)c4)cc3c12` [Example 169]: the IC50 is below 25 nM.

Take `[2H]C([2H])([2H])N1C(=O)c2cccc(OC(F)F)c2[C@H]2C[C@@H]1c1nn3ccc(-c4cnc([C@]5(N)C[C@@H](C#N)C5)nc4)cc3c12` [Example 170]: the IC50 is below 25 nM.

On to `CN1C(=O)c2cccc(OC(F)F)c2[C@H]2C[C@@H]1c1nn3ccc(-c4cnc([C@@H](O)CN5CCC5)nc4)cc3c12` [Example 171], for which the IC50 lay within 25 to 100 nM.

Regarding `CN1C(=O)c2cccc(OC(F)F)c2[C@H]2C[C@@H]1c1nn3ccc(-c4cnc([C@H](O)CN5CCC5)nc4)cc3c12` [Example 172], the IC50 was in the range of 100 to 1000 nM.

Take `C[C@]1(C#N)C[C@](N)(c2ncc(-c3ccn4nc5c(c4n3)[C@@H]3C[C@H]5NC(=O)c4cccc(OC(F)F)c43)cc2F)C1` [Example 173]: the half-maximal inhibitory concentration (IC50) was below 25 nM.

In the case of `C[C@]1(C#N)C[C@](N)(c2ncc(-c3nc4c5c(nn4cc3F)[C@H]3C[C@@H]5c4c(OC(F)F)cccc4C(=O)N3)cc2F)C1` [Example 174], the IC50 was below 25 nM.

Turning to `[2H]C([2H])([2H])N1C(=O)c2cccc(OC(F)F)c2[C@H]2C[C@@H]1c1nn3cnc(-c4cnc([C@]5(N)C[C@@](C)(C#N)C5)c(F)c4)cc3c12` [Example 175], the IC50 was below 25 nM.

As to `[2H]C([2H])([2H])N1C(=O)c2cccc(OC(F)F)c2[C@H]2C[C@@H]1c1nn3ccc(-c4cnc([C@]5(N)C[C@@H](C#N)C5)nc4)nc3c12` [Example 176], the IC50 is below 25 nM.

Take `[2H]C([2H])([2H])N1C(=O)c2cccc(OC(F)F)c2[C@H]2C[C@@H]1c1nn3ccc(-c4cnc(C5(N)COC5)nc4)nc3c12` [Example 177]: the half-inhibitory concentration (IC50) lay within 25 to 100 nM.

As for `[2H]C([2H])([2H])N1C(=O)c2cccc(OC(F)F)c2[C@H]2C[C@@H]1c1nn3cc(F)c(-c4cnc(C5(N)COC5)nc4)nc3c12` [Example 178], the IC50 is below 25 nM.

Turning to `[2H]C([2H])([2H])N1C(=O)c2cccc(OC(F)F)c2[C@H]2C[C@@H]1c1nn3ccc(-c4cnc([C@]5(N)C[C@H](C#N)C5)nc4)nc3c12` [Example 179], the IC50 was below 25 nM.

As to `[2H]C([2H])([2H])N1C(=O)c2cccc(OC(F)F)c2[C@H]2C[C@@H]1c1nn3ccc(-c4cnc([C@]5(O)C[C@@](C)(N)C5)nc4)nc3c12` [Example 180], the IC50 lay within 100 to 1000 nM.

With `[2H]C([2H])([2H])N1C(=O)c2cccc(OC(F)F)c2[C@H]2C[C@@H]1c1nn3cc(C)c(-c4cnc(C5(N)CCC5)nc4)cc3c12` [Example 181], the IC50 was below 25 nM.

As for `[2H]C([2H])([2H])N1C(=O)c2cccc(OC(F)F)c2[C@H]2C[C@@H]1c1nn3ccc(-c4ccc(C5(N)CCC5)nc4)nc3c12` [Example 182], the IC50 was below 25 nM.

On to `[2H]C([2H])([2H])N1C(=O)c2cccc(OC(F)F)c2[C@H]2C[C@@H]1c1nn3cc(F)c(-c4cnc([C@]5(N)C[C@](O)(C(F)(F)F)C5)nc4)nc3c12` [Example 183], for which the IC50 was below 25 nM.

Consider `NC1(c2ncc(-c3ccn4nc5c(c4c3)[C@@H]3C[C@H]5NC(=O)c4cccc(OC(F)F)c43)cn2)CCC1` [Example 184], for which the IC50 was below 25 nM.

For `[2H]C([2H])([2H])N1C(=O)c2cccc(OC(F)F)c2[C@H]2C[C@@H]1c1nn3cc(F)c(-c4cnc([C@]5(O)C[C@@](C)(N)C5)nc4)nc3c12` [Example 185], the IC50 is 25 to 100 nM.

Regarding `NC1(c2ccc(-c3ccn4nc5c(c4n3)[C@@H]3C[C@H]5NC(=O)c4cccc(OC(F)F)c43)cn2)CCC1` [Example 186], the IC50 lay in the range of 25 to 100 nM.

On to `[2H]C([2H])([2H])N1C(=O)c2cccc(OC(F)F)c2[C@H]2C[C@@H]1c1nn3ccc(-c4cnc([C@]5(N)C[C@@H](O)C5)nc4)cc3c12` [Example 187], for which the IC50 is below 25 nM.

Take `[2H]C([2H])([2H])N1C(=O)c2cccc(OC(F)F)c2[C@H]2C[C@@H]1c1nn3cc(F)c(-c4cnc([C@]5(N)C[C@@](C)(O)C5)c(F)c4)nc3c12` [Example 188]: the IC50 was below 25 nM.

Consider `[2H]C([2H])([2H])N1C(=O)c2cccc(OC(F)F)c2[C@H]2C[C@@H]1c1nn3ccc(-c4cnc([C@]5(N)C[C@@](C)(O)C5)c(F)c4)nc3c12` [Example 189], for which the concentration for half-maximal inhibition (IC50) was below 25 nM.

Regarding `C[C@]1(C#N)C[C@](N)(c2ncc(-c3ccn4nc5c(c4c3)[C@@H]3C[C@H]5NC(=O)c4cccc(OC(F)F)c43)cc2F)C1` [Example 190], the IC50 was below 25 nM.

For `C[C@@](O)(CC#N)c1ncc(-c2cc3c4c(nn3cc2F)[C@H]2C[C@@H]4c3c(OC(F)F)cccc3C(=O)N2)cn1` [Example 191], the IC50 is below 25 nM.

`C[C@](O)(CC#N)c1ncc(-c2cc3c4c(nn3cc2F)[C@H]2C[C@@H]4c3c(OC(F)F)cccc3C(=O)N2)cn1` [Example 192]: the IC50 is below 25 nM.

With `[2H]C([2H])([2H])N1C(=O)c2cccc(OC(F)F)c2[C@H]2C[C@@H]1c1nn3ccc(-c4cnc([C@]5(N)CCOC5)nc4)nc3c12` [Example 193], the IC50 is below 25 nM.

In the case of `[2H]C([2H])([2H])N1C(=O)c2cccc(OC(F)F)c2[C@H]2C[C@@H]1c1nn3ccc(-c4cnc([C@@]5(N)CCOC5)nc4)nc3c12` [Example 194], the IC50 fell in the range of 25 to 100 nM.

On to `C[C@]1(C#N)C[C@](N)(c2ncc(-c3ccn4nc5c(c4c3)[C@@H]3C[C@H]5NC(=O)c4cccc(OC(F)F)c43)cn2)C1` [Example 195], for which the IC50 is below 25 nM.

With `C[C@]1(O)C[C@](N)(c2ncc(-c3ccn4nc5c(c4c3)[C@@H]3C[C@H]5NC(=O)c4cccc(OC(F)F)c43)cn2)C1` [Example 197], the IC50 was below 25 nM.

As to `Cc1cc(P(C)(C)=O)c(F)cc1-c1ccn2nc3c(c2c1)[C@@H]1C[C@H]3NC(=O)c2cccc(OC(F)F)c21` [Example 198], the IC50 was below 25 nM.

Take `[2H]C([2H])([2H])N1C(=O)c2cccc(OC(F)F)c2[C@H]2C[C@@H]1c1nn3cc(F)c(-c4cnc(C5(N)CCC5)cn4)cc3c12` [Example 199]: the IC50 was below 25 nM.

Turning to `[2H]C([2H])([2H])N1C(=O)c2cccc(OC(F)F)c2[C@H]2C[C@@H]1c1nn3cc(F)c(-c4cnc([C@]5(N)C[C@@](C)(C#N)C5)cn4)cc3c12` [Example 200], the IC50 is below 25 nM.

`[2H]C([2H])([2H])N1C(=O)c2cccc(OC(F)F)c2[C@H]2C[C@@H]1c1nn3cc(C)c(-c4cnc([C@]5(N)C[C@@](C)(O)C5)nc4)cc3c12` [Example 201]: the IC50 is below 25 nM.

For the molecule `O=C1N[C@@H]2C[C@H](c3c(OC(F)F)cccc31)c1c2nn2ccc(-c3ccnc(OC4COC4)c3)cc12` [Example 202], the 50% inhibitory concentration (IC50) was below 25 nM.

As to `NC1(c2ccc(-c3ccn4nc5c(c4c3)[C@@H]3C[C@H]5NC(=O)c4cccc(OC(F)F)c43)cn2)CCC1` [Example 203], the IC50 is below 25 nM.

As for `[2H]C([2H])([2H])N1C(=O)c2cccc(OC(F)F)c2[C@H]2C[C@@H]1c1nn3ccc(-c4cnc([C@]5(N)C[C@@H](O)C5)nc4)nc3c12` [Example 204], the IC50 fell in the range of 25 to 100 nM.

Turning to `[2H]C([2H])([2H])N1C(=O)c2cccc(OC(F)F)c2[C@H]2C[C@@H]1c1nn3cc(F)c(-c4cnc([C@]5(N)C[C@@H](O)C5)nc4)nc3c12` [Example 205], the IC50 lay within 25 to 100 nM.

In the case of `[2H]C([2H])([2H])N1C(=O)c2cccc(OC(F)F)c2[C@H]2C[C@@H]1c1nn3cc(F)c(-c4cnc(C5(N)COC5)nc4)cc3c12` [Example 206], the IC50 is below 25 nM.

For the molecule `[2H]C([2H])([2H])N1C(=O)c2cccc(OC(F)F)c2[C@H]2C[C@@H]1c1nn3ccc(-c4cnc(C5(N)CCC5)cn4)cc3c12` [Example 207], the IC50 was below 25 nM.

For the molecule `[2H]C([2H])([2H])N1C(=O)c2cccc(OC(F)F)c2[C@H]2C[C@@H]1c1nn3ccc(-c4cnc([C@]5(O)C[C@@](C)(N)C5)nc4)cc3c12` [Example 208], the IC50 was below 25 nM.

Turning to `[2H]C([2H])([2H])N1C(=O)c2cccc(OC(F)F)c2[C@H]2C[C@@H]1c1nn3ccc(-c4cnc([C@]5(N)C[C@@](C)(O)C5)cn4)cc3c12` [Example 209], the IC50 is below 25 nM.

Take `[2H]C([2H])([2H])N1C(=O)c2cccc(OC(F)F)c2[C@H]2C[C@@H]1c1nn3ccc(-c4cnc([C@]5(N)C[C@@](C)(C#N)C5)cn4)cc3c12` [Example 210]: the IC50 was below 25 nM.
